Earlier results, collected in US4361545A (Rowell Laboratories, Inc., priority 1981, dated 1982).

For `Cn1c(=O)c2[nH]cnc2n(C)c1=O` [theophylline], the solubility is given as “low to moderate solubility”.
